Test results reported in US20120088746A1, “AMIDE DERIVATIVES AS ION-CHANNEL LIGANDS AND PHARMACEUTICAL COMPOSITIONS AND METHODS OF USING THE SAME” (PFIZER INC., priority 2006, published 2012).
Counter-ions that a name gives are not always drawn.

Target: human VR1 (Homo sapiens, UniProt Q8NER1)
Assay: Acid stimulation assay (acid-induced intracellular calcium change, FDSS 6000)
Assay type: cell-based
Conditions: final assay buffer pH5.8, 15 min pre-incubation, read-out: IC50 (nM) Low pH
Excerpt: VR1 antagonistic activity can be determined by the Ca^2+ imaging assay using human VR1 highly expressing cells. The cells that highly express human VR1 receptors are obtainable from several different conventional methods. The one standard method is cloning from human Dorsal Root Ganglion (DRG) or kidney according to the methods such as described in the journal article; Nature, 389, pp 816-824, 1997. Alternatively VR1 receptors highly expressing human keratinocytes are also known and published in the journal article (Biochemical and Biophysical Research Communications, 291, pp 124-129, 2002). […] Furthermore, the method to up regulate human VR1 gene, which is usually a silent gene or don't produce detectable level of VR1 receptors, is also available to obtain propriety cells. Such genetic modification method was described in detail; Nat. Biotechnol., 19, pp 440-445, 2001.
The cells that express human VR1 receptors were maintained in culture flask at 37° C. in an environment containing 5% CO2 until use in the assay. The intracellular Ca^2+ imaging assay to determine VR1 antagonistic activities were done by following procedures.
The culture medium was removed from the flask and fura-2/AM fluorescent calcium indicator was added to the flask at a concentration of 5 μM in the medium. The flask was placed in CO2 incubator and incubated for 1 hour. Then the cells expressing the human VR1 receptors were detached from the flask follow by washing with phosphate buffer saline, PBS(−) and re-suspended in assay buffer. The 80 tit of aliquot of cell suspension (3.75×10^5 cells/ml) was added to the assay plate and the cells were spun down by centrifuge (950 rpm, 20° C., 3 minutes).
(§1) The Acid-induced changes in the intracellular calcium concentration were monitored using FDSS 6000 (Hamamatsu Photonics, Japan), a fluorometric imaging system. The cell suspension in resting buffer (HBSS supplemented with 10 mM HEPES, pH 7.4) were pre-incubated with varying concentrations of the test compounds or resting buffer (buffer control) for 15 minutes at room temperature under the dark condition. The cells were automatically added the stimulating solution (HBSS supplemented with MES, final assay buffer pH5.8) by the FDSS 6000.
as §1, with “7.4) was” for “7.4) were”, “under” for “under the”, “dark conditions.” for “dark condition.”, “added to” for “added”

human VR1, sequence (Q8NER1 whole entry): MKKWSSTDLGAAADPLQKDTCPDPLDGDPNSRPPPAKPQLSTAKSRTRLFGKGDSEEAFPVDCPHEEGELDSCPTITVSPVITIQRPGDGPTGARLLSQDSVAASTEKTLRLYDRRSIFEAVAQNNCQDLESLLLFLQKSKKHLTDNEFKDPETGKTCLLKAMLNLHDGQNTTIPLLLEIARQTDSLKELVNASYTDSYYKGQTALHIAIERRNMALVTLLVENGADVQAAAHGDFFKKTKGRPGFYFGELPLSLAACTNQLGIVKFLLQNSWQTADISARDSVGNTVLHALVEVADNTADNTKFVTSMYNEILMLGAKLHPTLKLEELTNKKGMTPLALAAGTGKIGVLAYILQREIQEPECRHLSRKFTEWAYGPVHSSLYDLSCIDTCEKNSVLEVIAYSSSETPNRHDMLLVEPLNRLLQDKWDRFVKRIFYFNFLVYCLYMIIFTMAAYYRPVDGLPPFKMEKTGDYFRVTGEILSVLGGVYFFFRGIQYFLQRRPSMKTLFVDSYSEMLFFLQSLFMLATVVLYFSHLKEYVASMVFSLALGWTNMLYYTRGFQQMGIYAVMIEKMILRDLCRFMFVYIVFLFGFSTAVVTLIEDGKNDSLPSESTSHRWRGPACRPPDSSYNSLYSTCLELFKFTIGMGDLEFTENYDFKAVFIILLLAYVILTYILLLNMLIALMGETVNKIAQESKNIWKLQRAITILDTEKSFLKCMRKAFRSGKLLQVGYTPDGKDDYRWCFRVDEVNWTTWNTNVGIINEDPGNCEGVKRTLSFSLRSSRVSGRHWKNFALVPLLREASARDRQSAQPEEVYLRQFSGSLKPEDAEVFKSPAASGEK

Structure (SMILES) | IC50 [nM]
Cc1cc([C@@H](C)NC(=O)c2cnc3cc(C(F)(F)F)ccc3c2)ccc1NS(C)(=O)=O [Example 4, (1R)-1-{3-METHYL-4-[(METHYLSULFONYL)AMINO]PHENYL}ETHYL)-7-(TRIFLUOROMETHYL)QUINOLINE-3-CARBOXAMIDE] | 100
Cc1cc([C@@H](C)NC(=O)c2ccc3cc(C(C)C)ccc3n2)ccc1NS(C)(=O)=O [Example 9, 6-ISOPROPYL-N-((1R)-1-{3-METHYL-4-[(METHYLSULFONYL)AMINO]PHENYL}ETHYL)-QUINOLINE-2-CARBOXAMIDE] | 714
Cc1cc([C@@H](C)NC(=O)c2cnc3cc(C(F)(F)F)ccc3c2C)ccc1NS(C)(=O)=O [Example 11, 4-METHYL-N-((1R)-1-{3-METHYL-4-[(METHYLSULFONYL)AMINO]PHENYL}ETHYL)-7-(TRIFLUOROMETHYL)QUINOLINE-3-CARBOXAMIDE] | 240
Cc1cc([C@@H](C)NC(=O)c2ccc3cc(Br)ccc3n2)ccc1NS(C)(=O)=O [Example 12, 6-BROMO-N-((1R)-1-{3-METHYL-4-[(METHYLSULFONYL)AMINO]PHENYL}ETHYL)-QUINOLINE-2-CARBOXAMIDE] | 444
Cc1cc([C@@H](C)NC(=O)c2ccc3cc(C(C)(C)C)ccc3c2)c(F)cc1NS(C)(=O)=O [Example 13, 6-TERT-BUTYL-N-((1R)-1-{2-FLUORO-5-METHYL-4-[(METHYLSULFONYL)AMINO]PHENYL}-ETHYL)-2-NAPHTHAMIDE] | 127
Cc1cc([C@@H](C)NC(=O)c2ccc3cc(C(C)(C)C)ccc3n2)c(F)cc1NS(C)(=O)=O [Example 14, 6-TERT-BUTYL-N-((1R)-1-{2-FLUORO-5-METHYL-4-[(METHYLSULFONYL)AMINO]PHENYL}-ETHYL)QUINOLINE-2-CARBOXAMIDE] | 288
Cc1cc([C@@H](C)NC(=O)c2ccc3cc(C(C)(C)O)ccc3n2)ccc1NS(C)(=O)=O [Example 16] | 71
Cc1cc([C@@H](C)NC(=O)c2ccc3cc(F)ccc3c2)ccc1NS(C)(=O)=O [Example 18, 6-FLUORONAPHTHALENE-2-CARBOXYLIC ACID [(R)-1-(4-METHANESULFONYL-AMINO-3-METHYLPHENYL)ETHYL]AMIDE] | 83
Cc1cc([C@@H](C)NC(=O)c2ccc3ccccc3c2)ccc1NS(C)(=O)=O [Example 19, NAPHTHALENE-2-CARBOXYLIC ACID [(R)-1-(4-METHANESULFONYLAMINO-3-METHYLPHENYL)ETHYL]AMIDE] | 63
Cc1cc([C@@H](C)NC(=O)c2ccc3cc(N4CCCC4)ccc3c2)ccc1NS(C)(=O)=O [Example 21, 6-PYRROLIDIN-1-YL-NAPHTHALENE-2-CARBOXYLIC ACID [(R)-1-(4-METHANESULFONYL-AMINO-3-METHYLPHENYL)ETHYL]AMIDE] | 44
Cc1cc([C@@H](C)NC(=O)c2cc3ccc(Cl)cc3nc2C)ccc1NS(C)(=O)=O [Example 23, 7-CHLORO-2-METHYL-QUINOLINE-3-CARBOXYLIC ACID [(R)-1-(4-METHANESULFONYL-AMINO-3-METHYLPHENYL)ETHYL]AMIDE] | 379
C[C@@H](NC(=O)c1cnc2cc(C(F)(F)F)ccc2c1)c1cc(F)c(NS(C)(=O)=O)c(F)c1 [Example 27, N-((1R)-1-{3,5-DIFLUORO-4-[(METHYLSULFONYL)AMINO]PHENYL}ETHYL)-7-(TRIFLUOROMETHYL)QUINOLINE-3-CARBOXAMIDE] | 105
CC(=O)c1ccc2nc(C(=O)N[C@H](C)c3ccc(NS(C)(=O)=O)c(C)c3)ccc2c1 [Example 28, 6-ACETYL-N-((1R)-1-{3-METHYL-4-[(METHYLSULFONYL)AMINO]PHENYL}ETHYL)-QUINOLINE-2-CARBOXAMIDE] | 187
Cc1cc([C@@H](C)NC(=O)c2cnc3ccc(C(C)(C)C)cc3c2)ccc1NS(C)(=O)=O [Example 29, 6-TERT-BUTYL-N-((1R)-1-{3-METHYL-4-[(METHYLSULFONYL)AMINO]PHENYL}ETHYL)-QUINOLINE-3-CARBOXAMIDE] | 231
CC(C)c1ccc2cc(C(=O)N[C@H](C)c3cc(F)c(NS(C)(=O)=O)c(F)c3)ccc2n1 [Example 31, N-((1R)-1-{3,5-DIFLUORO-4-[(METHYLSULFONYL)AMINO]PHENYL}ETHYL)-2-ISOPROPYL-QUINOLINE-6-CARBOXAMIDE] | 47
Cc1cc([C@@H](C)NC(=O)c2cnc3cc(C(C)(C)C)ccc3c2)ccc1NS(C)(=O)=O [Example 33, 7-TERT-BUTYL-N-((1R)-1-{3-METHYL-4-[(METHYLSULFONYL)AMINO]PHENYL}ETHYL)-QUINOLINE-3-CARBOXAMIDE] | 56
Cc1cc([C@@H](C)NC(=O)c2ccc3cc(C(C)(C)C)ccc3c2)ncc1NS(C)(=O)=O [Example 40, 6-TERT-BUTYL-N-((1R)-1-{4-METHYL-5-[(METHYLSULFONYL)AMINO]PYRIDIN-2-YL}ETHYL)-2-NAPHTHAMIDE] | 31

Now those with a lower IC50, led by results:

IC50 [nM] | Structure (SMILES)
3 | Cc1cc([C@@H](C)NC(=O)c2ccc3cc(C(C)(C)C)ccc3c2)ccc1NS(C)(=O)=O [Example 1, 6-TERT-BUTYL-N-((1R)-1-{3-METHYL-4-[(METHYLSULFONYL)AMINO]PHENYL}ETHYL)-2-NAPHTHAMIDE]
4 | Cc1nc([C@@H](C)NC(=O)c2ccc3cc(C(C)(C)C)ccc3c2)ccc1NS(C)(=O)=O [Example 2, 6-TERT-BUTYL-N-((1R)-1-{6-METHYL-5-[(METHYLSULFONYL)AMINO]PYRIDIN-2-YL}ETHYL)-2-NAPHTHAMIDE]
4 | C[C@@H](NC(=O)c1ccc2cc(C(F)(F)F)ccc2n1)c1cc(F)c(NS(C)(=O)=O)c(F)c1 [Example 3, ((1R)-1-{3,5-DIFLUORO-4-[(METHYLSULFONYL)AMINO]PHENYL}ETHYL)-6-(TRIFLUORO-METHYL)QUINOLINE-2-CARBOXAMIDE]
1 | C[C@@H](NC(=O)c1ccc2cc(C(C)(C)C)ccc2n1)c1cc(F)c(NS(C)(=O)=O)c(F)c1 [Example 7, 6-TERT-BUTYL-N-((1R)-1-{3,5-DIFLUORO-4-[(METHYLSULFONYL)AMINO]PHENYL}-ETHYL)QUINOLINE-2-CARBOXAMIDE]
24 | C[C@@H](NC(=O)c1ccc2nc(C(C)(C)C)ccc2c1)c1cc(F)c(NS(C)(=O)=O)c(F)c1 [Example 15, 2-TERT-BUTYL-N-((1R)-1-{3,5-DIFLUORO-4-[(METHYLSULFONYL)AMINO]PHENYL}ETHYL)-QUINOLINE-6-CARBOXAMIDE HYDROCHLORIDE]
14 | Cc1cc([C@@H](C)NC(=O)c2ccc3cc(Br)ccc3c2)ccc1NS(C)(=O)=O [Example 17, 6-BROMONAPHTHALENE-2-CARBOXYLIC ACID [(R)-1-(4-METHANESULFONYLAMINO-3-METHYLPHENYL)ETHYL]AMIDE]
8 | COc1ccc2cc(C(=O)N[C@H](C)c3ccc(NS(C)(=O)=O)c(C)c3)ccc2c1 [Example 20, 6-METHOXYNAPHTHALENE-2-CARBOXYLIC ACID [(R)-1-(4-METHANESULFONYL-AMINO-3-METHYLPHENYL)ETHYL]AMIDE]
3 | Cc1cc([C@@H](C)NC(=O)c2ccc3cc(C4CC4)ccc3c2)ccc1NS(C)(=O)=O [Example 22, 6-CYCLOPROPYLNAPHTHALENE-2-CARBOXYLIC ACID [(R)-1-(4-METHANESULFONYL-AMINO-3-METHYLPHENYL)ETHYL]AMIDE]
6 | Cc1cc([C@@H](C)NC(=O)c2ccc3nc(C(F)(F)F)ccc3c2)c(F)cc1NS(C)(=O)=O [Example 32, N-((1R)-1-{2-FLUORO-5-METHYL-4-[(METHYLSULFONYL)AMINO]PHENYL}ETHYL)-2-(TRIFLUOROMETHYL)QUINOLINE-6-CARBOXAMIDE]
26 | C[C@@H](NC(=O)c1cnc2cc(C(F)(F)F)ccc2c1)c1ccc(NS(C)(=O)=O)c(F)c1 [Example 34, N-((1R)-1-{3-FLUORO-4-[(METHYLSULFONYL)AMINO]PHENYL}ETHYL)-7-(TRIFLUORO-METHYL)QUINOLINE-3-CARBOXAMIDE]
5 | Cc1cc([C@@H](C)NC(=O)c2ccc3nc(C(C)C)ccc3c2)ccc1NS(C)(=O)=O [Example 35, 2-ISOPROPYL-N-((1R)-1-{3-METHYL-4-[(METHYLSULFONYL)AMINO]PHENYL}ETHYL)-QUINOLINE-6-CARBOXAMIDE]
13 | CC(C)c1ccc2cc(C(=O)N[C@H](C)c3cc(F)c(NS(C)(=O)=O)c(F)c3)cnc2c1 [Example 39, N-((1R)-1-{3,5-DIFLUORO-4-[(METHYLSULFONYL)AMINO]PHENYL}ETHYL)-7-ISOPROPYL-QUINOLINE-3-CARBOXAMIDE]
29 | C[C@@H](NC(=O)c1cnc2cc(C(C)(C)C)ccc2c1)c1ccc(NS(C)(=O)=O)cc1 [Example 41, 7-TERT-BUTYL-N-((1R)-1-{4-[(METHYLSULFONYL)AMINO]PHENYL}ETHYL)QUINOLINE-3-CARBOXAMIDE]
